From PubChem BioAssay AID652179 (Johns Hopkins Ion Channel Center, 2013)
Activity calls are given as the source filed them.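 The calls were made as follows: active = maximum inhibition above 50% at any tested concentration, with a dose response curve fitted; inactive = no inhibition at any concentration or no dose response curve.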

These molecules were tested against TRPC4 (transient receptor potential cation channel C4), mouse (assay: blockers of mouse TRPC4 cation channel – cell-based, concentration-response, SAR follow-up (AID 652179)). Conditions: HEK293 TRPC4/mu-opioid cells, Fluo-4 calcium fluorescence ratio.

IC50 [µM]	SMILES
1.53	Cc1cc(N2CCCCC2)nc2ccccc12
12.6	Cc1cc(N2CCCC(F)C2)nc2ccccc12 (stereo unspecified)
4.61	c1ccc2nc(N3CCCCC3)ccc2c1
10.2	Cc1cc(N2CCC(F)CC2)nc2ccccc12
14.9	C[C@H]1CCCN1c1ccc2ccccc2n1
10.6	Cc1cc(N2CCC(F)(F)CC2)nc2ccccc12

Same assay, conditions: HEK293 TRPC4/mu-opioid cells, Fluo-4 calcium fluorescence ratio; at 20 µM (top of the series)

fluorescence ratio, lower = inhibition	SMILES
inactive	OC1CCCN(c2ccc3ccccc3n2)C1 (stereo unspecified)
inactive	FC1CCCN(c2ccc3ccccc3n2)C1 (stereo unspecified)
inactive	c1ccc2nc(N3CCCC3)ccc2c1
inactive	FC1CCN(c2ccc3ccccc3n2)CC1
inactive	OC1CCN(c2ccc3ccccc3n2)C1 (stereo unspecified)
inactive	Cc1cc(N(C)C)nc2ccccc12
inactive	Cc1cc(-n2ccnc2)nc2ccccc12
inactive	Cc1cc(N2CCC(=O)CC2)nc2ccccc12
inactive	O=C1CCN(c2ccc3ccccc3n2)CC1
inactive	Cc1cc(N2CCC(O)C2)nc2ccccc12 (stereo unspecified)
inactive	Cc1cc(-n2cccn2)nc2ccccc12
inactive	FC1(F)CCN(c2ccc3ccccc3n2)CC1
inactive	Cc1cc(-n2cccc2)nc2ccccc12
inactive	OC1CCN(c2ccc3ccccc3n2)CC1
inactive	Cc1cc(N2CCC(O)CC2)nc2ccccc12
